Target: Mitogen-activated protein kinase kinase kinase kinase 1 (Homo sapiens, UniProt Q92918)
Test: HPK1 Inhibition Assay
Experimental: A stock solution of 10 mM test compound was prepared in DMSO. The compound was prepared by 5-fold and 10-point serial dilutions with HPK1 kinase assay buffer. The HPK1 kinase assay buffer contained 40 mM Tris, pH 7.5; 20 mM MgCl2, 0.1 mg/ml BSA, and 50 μM DTT. 7.5 ng/μl of Active HPK1 (Promega, V4098) and 0.1 μg/ml MBP substrate protein were added to the reaction system. The final concentration of ATP in the HPK1 kinase reaction system was 10 μM. Serial diluted compounds were transferred to the reaction system and incubated at room temperature for 1 hr. 5 μL of ADP-Glo™ Reagent (Promega, V9101) was added and incubated for 40 min to stop the kinase reaction and deplete the unconsumed ATP. […] The luminescence was measured with a plate-reading luminometer.

Sequence of Mitogen-activated protein kinase kinase kinase kinase 1 (Q92918 whole entry): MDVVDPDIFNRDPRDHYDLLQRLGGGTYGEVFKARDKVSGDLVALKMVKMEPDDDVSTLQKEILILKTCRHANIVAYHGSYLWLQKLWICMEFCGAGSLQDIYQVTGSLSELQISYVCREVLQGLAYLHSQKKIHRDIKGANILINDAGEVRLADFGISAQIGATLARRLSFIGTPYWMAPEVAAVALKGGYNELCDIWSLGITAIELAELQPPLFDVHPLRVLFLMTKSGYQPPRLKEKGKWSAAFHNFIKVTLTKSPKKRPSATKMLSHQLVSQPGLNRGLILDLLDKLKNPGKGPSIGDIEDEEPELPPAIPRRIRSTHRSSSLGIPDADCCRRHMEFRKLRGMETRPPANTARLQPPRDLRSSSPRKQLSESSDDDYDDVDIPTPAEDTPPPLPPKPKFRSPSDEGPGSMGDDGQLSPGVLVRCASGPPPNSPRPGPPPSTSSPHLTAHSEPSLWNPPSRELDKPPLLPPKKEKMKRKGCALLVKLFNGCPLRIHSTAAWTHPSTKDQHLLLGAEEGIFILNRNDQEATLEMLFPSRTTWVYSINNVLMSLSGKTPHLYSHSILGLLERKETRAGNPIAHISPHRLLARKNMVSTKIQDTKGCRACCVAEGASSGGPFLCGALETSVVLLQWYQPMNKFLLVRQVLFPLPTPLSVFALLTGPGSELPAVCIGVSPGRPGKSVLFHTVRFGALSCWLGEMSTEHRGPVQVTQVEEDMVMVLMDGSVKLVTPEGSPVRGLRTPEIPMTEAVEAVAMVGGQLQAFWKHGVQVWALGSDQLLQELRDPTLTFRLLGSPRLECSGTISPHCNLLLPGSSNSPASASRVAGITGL

IC50 [nM] | Compound
< 100 | Cn1c(-c2ccncc2F)nc2c(N3CCC[C@H]3CN)c(NC(=O)c3ccnn(-c4c(F)cccc4F)c3=O)ccc21 [US20250122174, Example 43]
< 100 | Cc1nc2c(N3C[C@@H]4C[C@H]3CN4)c(NC(=O)c3ccc(=O)n(-c4c(F)cccc4F)n3)ccc2n1C [US20250122174, Example 75]
< 100 | Cc1nc2c(N3CC[C@@H](N)C3)c(NC(=O)c3ccc(=O)n(-c4c(Cl)cccc4Cl)n3)ccc2n1C [US20250122174, Example 108]
< 100 | CC(C)c1nc2c(N3CC[C@H]4NCC[C@H]43)c(NC(=O)c3ccc(=O)n(-c4c(F)cccc4F)n3)ccc2n1C [US20250122174, Example 135]
< 100 | CC(C)n1ncc2c(N3CCC(N)CC3)c(NC(=O)c3ccc(=O)n(-c4c(F)cccc4F)n3)ccc21 [US20250122174, Example 184]
< 100 | Cc1nc2c(N3CCNC(=O)C3)c(NC(=O)c3ccc(=O)n(-c4c(F)cccc4F)n3)ccc2n1C [US20250122174, Example 83]

— BindingDB's records for patent US20250122174 (Shenzhen Yuanli Shenwan Innovative Medicine, 2025)
